Assay results published in the supplement of paper PMC11061612.

How the values were obtained:
Assay in all cases: combination Emax (second highest fraction inhibited in the dose matrix, 72 h); higher = more inhibition; extreme values may be limits of the assay
[1] = test system: SU8686 (Pancreatic Carcinoma)
Method in brief: (§1)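 Bliss excess equals the observed combination effect minus the expected value EA + EB − EA·EB, where EA and EB are the effects of each agent alone. Combination Emax is the second-highest inhibition within the matrix. Inhibition was scaled from CellTiter-Glo 2.0 luminescence, with 0 set by vehicle wells and 1 by blank wells, after 72 hours of two-drug dosing of cells plated in 1536-well plates.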

[2] = test system: SCC-15 (Oral Cavity Carcinoma)
Method in brief: as §1

D-263MG (Glioblastoma) = test system: D-263MG (Glioblastoma)
Method in brief: as §1

[3] = test system: BT-549 (Breast Carcinoma)
Method in brief: as §1

TGW (Neuroblastoma) = test system: TGW (Neuroblastoma)
Method in brief: as §1

[4] = test system: PANC-04-03 (Pancreatic Carcinoma)
Method in brief: as §1

YH-13 (Glioblastoma) = test system: YH-13 (Glioblastoma)
Method in brief: as §1

[5] = test system: AMO-1 (Plasma Cell Myeloma)
Method in brief: as §1

[6] = test system: TE-1 (Esophageal Squamous Cell Carcinoma)
Method in brief: as §1

[7] = test system: LU-65 (Non-Small Cell Lung Carcinoma)
Method in brief: as §1

[8] = test system: KARPAS-299 (T-Cell Non-Hodgkin's Lymphoma)
Method in brief: as §1

[9] = test system: HGC-27 (Gastric Carcinoma)
Method in brief: as §1

[10] = test system: NCI-H1915 (Non-Small Cell Lung Carcinoma)
Method in brief: as §1

[11] = test system: Hs-766T (Pancreatic Carcinoma)
Method in brief: as §1

[12] = test system: HSC-4 (Oral Cavity Carcinoma)
Method in brief: as §1

[13] = test system: Ca9-22 (Head and Neck Carcinoma)
Method in brief: as §1

[14] = test system: OVCAR-4 (Ovarian Carcinoma)
Method in brief: as §1

[15] = test system: MLMA (Other Blood Carcinomas)
Method in brief: as §1

[16] = test system: NEC8 (Other Solid Carcinomas)
Method in brief: as §1

[17] = test system: HOP-62 (Lung Adenocarcinoma)
Method in brief: as §1

SMILES	combination Emax [1]	combination Emax [2]	combination Emax (D-263MG (Glioblastoma))	combination Emax [3]	combination Emax (TGW (Neuroblastoma))	combination Emax [4]	combination Emax (YH-13 (Glioblastoma))	combination Emax [5]	combination Emax [6]	combination Emax [7]	combination Emax [8]	combination Emax [9]	combination Emax [10]	combination Emax [11]	combination Emax [12]	combination Emax [13]	combination Emax [14]	combination Emax [15]	combination Emax [16]	combination Emax [17]
CC(=O)c1c(C)c2cnc(Nc3ccc(N4CCNCC4)cn3)nc2n(C2CCCC2)c1=O [Palbociclib] + Cc1c2c(nn1C)CSCc1cc(n(C)n1)CSc1cc(c3ccccc3c1)OCCCc1c(C(=O)O)n(C)c3c-2c(Cl)ccc13 [AZD5991] (first compound max 10 µM, 7x7, partner max 1 µM)	0.0791	0.191	0.612	0.455	0.24	0.196	0.38	1	0.194	0.281	0.968	0.715	0.447	0.404	0.106	0.267	0.191	0.784	0.277	0.424
CC(=O)c1c(C)c2cnc(Nc3ccc(N4CCNCC4)cn3)nc2n(C2CCCC2)c1=O [Palbociclib] + Cn1cnc2c(F)c(Nc3ccc(Br)cc3Cl)c(C(=O)NOCCO)cc21 [Selumetinib] (first compound max 10 µM, 7x7, partner max 10 µM)	0.173	0.232	0.265	0.226	0.342	0.404	0.387	0.557	0.383	0.491	0.594	0.617	0.782	0.465	0.261	0.458	0.286	0.769	0.0587	0.471
COc1cccc(OCCCN)c1-c1cc(Nc2cnc(C#N)cn2)n[nH]1 [Prexasertib] + C=CCn1c(=O)c2cnc(Nc3ccc(N4CCN(C)CC4)cc3)nc2n1-c1cccc(C(C)(C)O)n1 [AZD1775] (first compound max 1 µM, partner max 1 µM)	0.531	0.638	0.888	0.845	0.999	0.627	0.858	0.99	0.763	0.873	0.978	0.991	0.749	0.694	0.641	1	0.866	0.963	0.999	0.627
COc1cccc(OCCCN)c1-c1cc(Nc2cnc(C#N)cn2)n[nH]1 [Prexasertib] + CCc1c2c(nc3ccc(O)cc13)-c1cc3c(c(=O)n1C2)COC(=O)[C@]3(O)CC [SN-38] (first compound max 1 µM, 7x7, partner max 0.3 µM)	0.448	0.802	0.955	0.864	0.944	0.625	0.862	0.968	0.902	0.926	0.992	0.994	0.89	0.655	0.9	0.985	0.9	0.948	1	0.843
COc1cccc(OCCCN)c1-c1cc(Nc2cnc(C#N)cn2)n[nH]1 [Prexasertib] + CN(C)CCCOc1ccc(-c2ccc3ncc4c(c3c2)n(C2CCOCC2)c(=O)n4C)cn1 [AZD0156] (first compound max 1 µM, 7x7, partner max 1 µM)	0.525	0.617	0.915	0.707	0.964	0.564	0.777	0.98	0.71	0.761	0.983	0.858	0.588	0.665	0.604	1	0.771	0.957	0.986	0.632
COc1cccc(OCCCN)c1-c1cc(Nc2cnc(C#N)cn2)n[nH]1 [Prexasertib] + C[C@@H]1COCCN1C2=NC(=NC(=C2)C3(CC3)[S@](=N)(=O)C)C4=C5C=CNC5=NC=C4 [AZD6738] (first compound max 1 µM, 7x7, partner max 10 µM)	0.531	0.663	0.797	0.698	0.968	0.555	0.793	0.965	0.641	0.795	0.985	0.895	0.612	0.658	0.666	0.991	0.832	0.954	0.983	0.648
COc1cccc(OCCCN)c1-c1cc(Nc2cnc(C#N)cn2)n[nH]1 [Prexasertib] + Cc1cc2ncnn2cc1Nc1ncc2c(n1)n(C1CCOCC1)c(=O)n2C [AZD7648] (first compound max 1 µM, 7x7, partner max 10 µM)	0.528	0.549	0.835	0.672	0.947	0.599	0.869	0.986	0.694	0.822	0.962	0.858	0.602	0.709	0.588	1	0.777	0.96	0.995	0.582
COc1cccc(OCCCN)c1-c1cc(Nc2cnc(C#N)cn2)n[nH]1 [Prexasertib] + O=C(c1cc(Cc2n[nH]c(=O)c3ccccc23)ccc1F)N1CCN(C(=O)C2CC2)CC1 [Olaparib] (first compound max 1 µM, 7x7, partner max 10 µM)	0.527	0.482	0.762	0.654	0.915	0.49	0.804	0.982	0.621	0.788	1	0.91	0.665	0.658	0.674	0.991	0.743	0.954	0.968	0.606
CCc1c2c(nc3ccc(O)cc13)-c1cc3c(c(=O)n1C2)COC(=O)[C@]3(O)CC [SN-38] + CN(C)CCCOc1ccc(-c2ccc3ncc4c(c3c2)n(C2CCOCC2)c(=O)n4C)cn1 [AZD0156] (first compound max 0.3 µM, 7x7, partner max 1 µM)	0.497	0.709	0.722	0.423	0.62	0.462	0.509	0.9	0.522	0.836	0.924	0.885	0.609	0.39	0.804	0.914	0.187	0.877	0.99	0.664
Cn1cnc2c(F)c(Nc3ccc(Br)cc3Cl)c(C(=O)NOCCO)cc21 [Selumetinib] + C=CCn1c(=O)c2cnc(Nc3ccc(N4CCN(C)CC4)cc3)nc2n1-c1cccc(C(C)(C)O)n1 [AZD1775] (first compound max 10 µM, partner max 1 µM)	0.126	0.3	0.218	0.715	0.566	0.456	0.329	0.917	0.638	0.908	0.851	0.536	0.846	0.487	0.427	0.55	0.546	0.769	0.628	0.487
Cn1cnc2c(F)c(Nc3ccc(Br)cc3Cl)c(C(=O)NOCCO)cc21 [Selumetinib] + CC(C)n1c(=O)n(C)c2cnc3cc(F)c(-c4ccc(OCCCN5CCCCC5)nc4)cc3c21 [AZD1390] (first compound max 10 µM, 7x7, partner max 0.3 µM)	0.163	0.176	0.204	0.117	0.0418	0.418	0.131	0.364	0.384	0.598	0.347	0.171	0.641	0.475	0.132	0.44	0.126	0.23	0.0259	0.409
Cn1cnc2c(F)c(Nc3ccc(Br)cc3Cl)c(C(=O)NOCCO)cc21 [Selumetinib] + CCN(CCO)CCCOc1ccc2c(Nc3cc(CC(=O)Nc4cccc(F)c4)[nH]n3)ncnc2c1 [AZD2811] (first compound max 10 µM, 7x7, partner max 1 µM)	0.142	0.36	0.284	0.3	0.0777	0.479	0.429	0.481	0.49	0.635	0.252	0.71	0.6	0.515	0.345	0.475	0.268	0.286	0.0754	0.475
Cn1cnc2c(F)c(Nc3ccc(Br)cc3Cl)c(C(=O)NOCCO)cc21 [Selumetinib] + C[C@@H]1COCCN1C2=NC(=NC(=C2)C3(CC3)[S@](=N)(=O)C)C4=C5C=CNC5=NC=C4 [AZD6738] (first compound max 10 µM, 7x7, partner max 10 µM)	0.113	0.435	0.359	0.464	0.577	0.516	0.51	0.885	0.585	0.808	0.929	0.734	0.701	0.567	0.595	0.869	0.532	0.596	0.764	0.569
